Among the data in PMC10675604, “Cetirizine and Levetiracetam as Inhibitors of Monoacylglycerol Lipase: Investigating Their Repurposing Potential as Novel Osteoarthritic Pain Therapies” (Pharmaceuticals, 2023) are IC50 values, retold here.

The target of this test is T1, monoacylglycerol lipase (MAGL) (Homo sapiens, UniProt Q99685).
T1 construct: gene MGLL
T1 sequence (Q99685 1-303): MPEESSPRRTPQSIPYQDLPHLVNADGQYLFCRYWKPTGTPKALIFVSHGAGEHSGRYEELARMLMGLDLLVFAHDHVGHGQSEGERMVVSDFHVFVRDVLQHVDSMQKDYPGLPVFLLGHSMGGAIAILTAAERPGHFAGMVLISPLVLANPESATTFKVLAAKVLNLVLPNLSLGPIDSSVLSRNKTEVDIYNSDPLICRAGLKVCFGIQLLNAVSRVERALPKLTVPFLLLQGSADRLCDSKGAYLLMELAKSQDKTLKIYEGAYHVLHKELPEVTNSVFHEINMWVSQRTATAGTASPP
Kind of test: colorimetric MAGL inhibition assay (Cayman kit […], 4-nitrophenyl acetate hydrolysis, […] nm). It counts as biochemical.

Broadly, the IC50 is the concentration that inhibits the measured activity by half. A high value points to lower potency. In the case of `O=C(O)COCCN1CCN(C(c2ccccc2)c2ccc(Cl)cc2)CC1` (centres unmarked) [cetirizine], the 50% inhibitory concentration (IC50) turned out to be 9.39 µM.

Compound `CC[C@@H](C(N)=O)N1CCCC1=O` [levetiracetam] yielded a concentration for half-maximal inhibition (IC50) of 3.01 µM.
